Where a SMILES comes first, the peptide text is derived from it. Bridges are numbered along the chain shown (N, C = ends). [ ]: non-standard residue; d: D form. The star is where a group is joined. hPhe(3-Cl-4-CF3) = N[C@@H](CCc1ccc(C(F)(F)F)c(Cl)c1)C(=O)O; NPrPhe(4-CF3) = CCCN[C@@H](Cc1ccc(C(F)(F)F)cc1)C(=O)O; NMePhe(4-F) = CN[C@@H](Cc1ccc(F)cc1)C(=O)O; NMeGly(cPent) = CN[C@H](C(=O)O)C1CCCC1; Pro(4,4-F2) = O=C(O)[C@@H]1CC(F)(F)CN1; Pro(4,4-Me2) = CC1(C)CN[C@H](C(=O)O)C1; NMeD = CN[C@@H](CC(=O)O)C(=O)O; NMeL = CN[C@@H](CC(C)C)C(=O)O; NMeNva = CCC[C@H](NC)C(=O)O; Morpholide = C1CN(*)CCO1; NMeA = CN[C@@H](C)C(=O)O; Ac5c = NC1(C(=O)O)CCCC1; Aze = O=C(O)[C@@H]1CCN1; Ac4c = NC1(C(=O)O)CCC1; Sar = CNCC(=O)O
Key:
[1] = target: GDP-bound NRAS wild-type protein (Homo sapiens, UniProt P01111); assay: Binding to NRAS by surface plasmon resonance (SPR), KD and KD ratio to KRAS
GDP-bound NRAS wild-type protein, sequence (P01111 whole entry): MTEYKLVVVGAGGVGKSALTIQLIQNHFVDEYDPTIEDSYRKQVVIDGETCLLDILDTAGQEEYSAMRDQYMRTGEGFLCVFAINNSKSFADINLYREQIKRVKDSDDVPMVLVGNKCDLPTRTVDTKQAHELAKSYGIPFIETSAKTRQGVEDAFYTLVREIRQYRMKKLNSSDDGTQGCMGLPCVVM
Summary of the method: (§1)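 Compound binding is evaluated by SPR single-cycle kinetics, with concentrations added intermittently from low to high for 75 s each. Target surfaces carry GDP-loaded biotinylated Avi-RAS at about 100–300 RU, regenerated after each cycle; temperature 30°C. A 1:1 binding model gives KD.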

[2] = target: HRAS wild-type protein (Homo sapiens, UniProt P01112); assay: Binding to HRAS by surface plasmon resonance (SPR), KD and KD ratio to KRAS
HRAS wild-type protein, sequence (P01112 whole entry): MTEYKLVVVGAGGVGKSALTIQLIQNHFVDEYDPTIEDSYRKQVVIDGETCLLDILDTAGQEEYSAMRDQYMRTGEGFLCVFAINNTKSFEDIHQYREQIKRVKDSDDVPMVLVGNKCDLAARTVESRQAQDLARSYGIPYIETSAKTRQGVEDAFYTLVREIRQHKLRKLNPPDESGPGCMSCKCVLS
Summary of the method: as §1

[3] = system: human lung cancer strain NCI-H441; assay type: cell-based
Summary of the method: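 Proliferation was scored by […] measured after the reagent was added to cultures kept at 37°C in 5% carbon dioxide.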

[4] = ratio of the KD value with respect to GDP-bound NRAS wild-type protein to the KD value with respect to KRAS
[5] = ratio of the KD value with respect to HRAS wild-type protein to the KD value with respect to KRAS
[6] = ratio of KD for GDP-bound NRAS wild-type protein to KD for KRAS
[7] = ratio of KD for HRAS wild-type protein to KD for KRAS

SMILES | IC50 [3] | NRAS /KRAS ([1]; ratio of KD value for GDP-bound NRAS wild-type protein to KD value for KRAS (SPR)) | HRAS /KRAS ([2]; ratio of KD value for HRAS wild-type protein to KD value for KRAS (SPR)) | NRAS /KRAS [1, 4] | HRAS /KRAS [2, 5] | NRAS /KRAS [1, 6] | HRAS /KRAS [2, 7]
CC[C@H](C)[C@@H]1NC(=O)[C@H](C2CC2)N(C)C(=O)C[C@@H](C(=O)N(C)C)N(C)C(=O)[C@H](C2CCCC2)N(C)C(=O)C2(CCCC2)N(C)C(=O)[C@@H]2C[C@@H](C)CN2C(=O)[C@H](CCc2cc(F)c(C(F)(F)F)c(F)c2)NC(=O)CN(C)C(=O)[C@H](Cc2ccc(C)cc2)N2CC/C=C\C[C@@H](C2=O)N(C)C(=O)CN(C)C1=O [PP1813] | 0.0226 µM | A (a compound having 10 or more and less than 20 is denoted as A) | B (a compound having 3 or more and less than 10 is denoted as B) | – | – | – | –
CC[C@H](C)[C@@H]1NC(=O)[C@H](CC(C)C)N(C)C(=O)C[C@@H](C(=O)N2CCOCC2)N(C)C(=O)[C@H](C2CCCC2)N(C)C(=O)C2(CCCC2)NC(=O)[C@@H]2CCCN2C(=O)[C@H](CCc2ccc(C(F)(F)F)c(Cl)c2)NC(=O)CN(C)C(=O)[C@H](Cc2ccc(F)cc2)N(C)C(=O)[C@@H]2CCN2C(=O)[C@H](C)N(C)C1=O [PP0217] ([NMeL]I[NMeA][Aze][NMePhe(4-F)][Sar][hPhe(3-Cl-4-CF3)]P[Ac5c][NMeGly(cPent)][NMeD]-Morpholide; lactam N-11) | 0.0181 µM | – | – | – | – | C (A compound having a KD ratio of 0.1 or more and less than 3 is denoted as C) | C (A compound having a KD ratio of 0.1 or more and less than 3 is denoted as C)
CCO[C@@H]1C[C@H]2C(=O)NC3(CC(C)(C)C3)C(=O)N(C)[C@@H](C(CC)CC)C(=O)N(C)[C@H](C(=O)N(C)C)CC(=O)N(C)[C@@H](C)C(=O)N[C@@H]([C@@H](C)CC)C(=O)N(C)CC(=O)N(C)[C@H]3C/C=C\CCN(C3=O)[C@@H](Cc3ccc(C)cc3)C(=O)N(C)CC(=O)N[C@@H](CCc3ccc(Cl)c(Cl)c3)C(=O)N2C1 [PP2186] | 0.0337 µM | – | – | AA (a compound having 20 or more is denoted as AA) | A (a compound having 10 or more and less than 20 is denoted as A) | – | –
CC[C@H](C)[C@@H]1NC(=O)[C@H](CC(C)C)N(C)C(=O)C[C@@H](C(=O)N2CCOCC2)N(C)C(=O)[C@H](C2CCCC2)N(C)C(=O)C2(CCC2)NC(=O)[C@@H]2C[C@@H](OCC3CC3)CN2C(=O)[C@H](CCc2cc(F)c(C(F)(F)F)c(F)c2)NC(=O)CN(C)C(=O)[C@H](Cc2ccc(C(F)(F)F)cc2)N2CCCCC[C@@H](C2=O)N(C)C(=O)CN(C)C1=O [PP1005] | 0.275 µM | – | – | – | – | A (a compound having 10 or more and less than 20 is denoted as A) | A (a compound having 10 or more and less than 20 is denoted as A)

The next molecules have a lower IC50 [3] than those just listed; values first:

IC50 [3] | SMILES | NRAS /KRAS ([1]; ratio of KD value for GDP-bound NRAS wild-type protein to KD value for KRAS (SPR)) | HRAS /KRAS ([2]; ratio of KD value for HRAS wild-type protein to KD value for KRAS (SPR)) | NRAS /KRAS [1, 4] | HRAS /KRAS [2, 5] | NRAS /KRAS [1, 6] | HRAS /KRAS [2, 7]
0.007 µM | CCCN1C(=O)[C@@H]2CCN2C(=O)CN(C)C(=O)[C@H]([C@@H](C)CC)NC(=O)[C@H](CC(C)C)N(C)C(=O)C[C@@H](C(=O)N2CCOCC2)N(C)C(=O)[C@H](C2CCCC2)N(C)C(=O)C2(CCCC2)NC(=O)[C@@H]2CC(C)(C)CN2C(=O)[C@H](CCc2ccc(C(F)(F)F)c(Cl)c2)NC(=O)CN(C)C(=O)[C@@H]1Cc1ccc(C(F)(F)F)cc1 [PP0456] ([NMeL]I[Sar][Aze][NPrPhe(4-CF3)][Sar][hPhe(3-Cl-4-CF3)][Pro(4,4-Me2)][Ac5c][NMeGly(cPent)][NMeD]-Morpholide; lactam N-11) | – | – | C (A compound having a KD ratio of 0.1 or more and less than 3 is denoted as C) | C (A compound having a KD ratio of 0.1 or more and less than 3 is denoted as C) | – | –
0.0057 µM | CCCN1C(=O)[C@@H]2CCN2C(=O)[C@H](C)N(C)C(=O)[C@H]([C@@H](C)CC)NC(=O)[C@H](CC(C)C)N(C)C(=O)C[C@@H](C(=O)N2CCOCC2)N(C)C(=O)[C@H](C2CCCC2)N(C)C(=O)C2(CCC2)NC(=O)[C@@H]2CCCN2C(=O)[C@H](CCc2ccc(C(F)(F)F)c(Cl)c2)NC(=O)CN(C)C(=O)[C@@H]1Cc1ccc(C(F)(F)F)cc1 [PP0198] ([NMeL]I[NMeA][Aze][NPrPhe(4-CF3)][Sar][hPhe(3-Cl-4-CF3)]P[Ac4c][NMeGly(cPent)][NMeD]-Morpholide; lactam N-11) | – | – | – | – | C (A compound having a KD ratio of 0.1 or more and less than 3 is denoted as C) | B (a compound having 3 or more and less than 10 is denoted as B)
0.0046 µM | CCC[C@H]1C(=O)N[C@@H]([C@@H](C)CC)C(=O)N(C)[C@@H](C)C(=O)N2CC[C@H]2C(=O)N(CCC)[C@@H](Cc2ccc(C(F)(F)F)cc2)C(=O)N(C)CC(=O)N[C@@H](CCc2ccc(C(F)(F)F)c(Cl)c2)C(=O)N2CC(F)(F)C[C@H]2C(=O)NC2(CCCC2)C(=O)N(C)[C@@H](C2CCCC2)C(=O)N(C)[C@H](C(=O)N2CCOCC2)CC(=O)N1C [PP0205] ([NMeNva]I[NMeA][Aze][NPrPhe(4-CF3)][Sar][hPhe(3-Cl-4-CF3)][Pro(4,4-F2)][Ac5c][NMeGly(cPent)][NMeD]-Morpholide; lactam N-11) | – | – | – | – | C (A compound having a KD ratio of 0.1 or more and less than 3 is denoted as C) | C (A compound having a KD ratio of 0.1 or more and less than 3 is denoted as C)

Source: patent EP4603105A1, “PHARMACEUTICAL COMPOSITION CONTAINING CYCLIC COMPOUND HAVING SELECTIVE KRAS INHIBITORY EFFECT AGAINST HRAS AND NRAS” (CHUGAI SEIYAKU KABUSHIKI KAISHA, priority 2022, dated 2024)
